Source: US20260115261A1, “COLLAGEN PEPTIDE-BASED MEDICAMENT COMPOSITIONS AND USES THEREOF” (SUSTAIN HOLDINGS, LLC, priority 2023, published 2026)

Legend:
[1] = tested on: dorsal root ganglion (DRG) neurons; test: DRG explant neurite outgrowth on MMP-1-digested collagen treated with CMP; assay type: cell-based, rat
Protocol: Plates were then rinsed with culture medium, and DRG neuronal cells were plated uniformly on plates having one of three surface coating conditions: (1) intact collagen; (2) MMP1-digested collagen; and (3) MMP1-digested collagen+CMP. Plates were then incubated at 37° C. for 24 hours or 48 hours, and then examined for morphology and neurite outgrowth by inverted brightfield microscopy.
To measure neurite outgrowth accurately, explants were visualized live using multifocal high-magnification phase contrast microscopy to optimize identification and measurement of the longest neurite (FIG. 2A, white arrow) and the size of the DRG explant growth field.

optic nerve = test: Optic nerve crush, axon repair after intravitreal injection; assay type: in vivo, mice; details: for greater abundance of CTB-containing axon segments vs vehicle: measurements above the median, p≤0.02
Protocol: To further examine the effects of CMPs on nerve regeneration, optic nerve crush experiments were performed. This approach is a useful model of traumatic optic neuropathy and for assessing potential neuroreparative and neuroregenerative strategies (Cameron, E G et al., Bio-protocol 10(6) (Mar. 20, 2020), doi: 10.21769/BioProtoc.3559). Axon degeneration in this injury model also involves degradation of matrix collagen associated with robust tissue remodeling (Bernardo-Colon, A et al., Cell Death Dis. 9:1097 (2018); Sharma, T P et al., Mol. Neurodegener. 9:14 (2014)). Mice were subjected to […] nerve crush, and then three days later received an intravitreal injection of vehicle (DMSO) or of fluorescently tagged CMP 13A (SEQ ID NO:6). Optic nerves were longitudinally sectioned in the site of the injury two weeks following nerve crush, and sections were examined for axon length (via cholera toxin B labeling) and CMP localization (via fluorescence microscopy). Sections were also labeled with glial fibrillary acidic protein (GFAP) to localize astrocyte glia in the sections. […] Repaired axons were largely coincident with localized patches of CMP (FIG. 6C, arrows). Scale=200 μm (FIG. 6A) or 100 μm (FIGS. 6B,C).
Next, we quantitated the number of CTB+ green axon segments at discrete distances distal from the crush site (towards the brain). […] Even so, in both cohorts, there were a number of samples with few, if any, axons distal from the crush site, leading to substantial variability (FIG. 7B, inset). To better estimate the magnitude of the effect due to CMP 13A compared to vehicle, we pooled the measurements above the median at each location into three bins: 50-100 μm, 200-300 μm, and 400 μm and further from the injury site. […] Intact axon segments in these nerves were also longer than those in nerves from vehicle-treated eyes. The mean length of intact axon segments in nerves from CMP 13A-treated eyes was 51% greater than that in the vehicle cohort: 122.6±5.5 vs. 81.1±8.3 μm (p<0.001; FIG. 7D). Similarly, the mean for the longest 25 segments in the CMP 13A nerves was nearly 80% greater than that for vehicle nerves: 228.1±12.9 vs. 127.8±10.5 μm (p<0.001; FIG. 7E).

[2] = tested on: cerebrovasculature of ApoE−/− STZ mice; test: Diabetic atherosclerosis mouse model (ApoE−/− + STZ + high fat diet), cerebrovascular immunohistochemistry; assay type: in vivo
Protocol: Animals. All animal studies were conducted in accordance with the NIH guide for the care and use of laboratory animals and approved by the Vanderbilt University Institutional Animal Care and Use Committee. For the studies described, 12-week-old ApoE^−/− (#002052) or C57/B6J wildtype (WT) (#000664) mice were obtained from Jackson Laboratories. Mice were housed in a facility managed by Vanderbilt University Division of Animal Care with ad libitum access to water and standard diet followed by ad libitum access to 45% high fat diet (Research Diet Inc.; Catalog #D12451) starting at the correct study time point. Mice were subjected to 12-hr. light/dark cycle.
Animal Model of Diabetic Atherosclerosis. A diabetic atherosclerosis mouse model was implemented by combining ApoE^−/− mice with a streptozocin STZ-induced diabetic phenotype. Prior to STZ injection and diet change, baseline fasting blood glucose measurements and weights were obtained. To induce hyperglycemia ApoE^−/− mice were injected with STZ (50 mg/Kg in 10 mM sodium citrate, pH4.5; Millipore Sigma Catalog #S0130) intraperitoneally for five consecutive days. For the duration of STZ injections, mice received drinking water supplemented with 10% sucrose. One week after the final STZ injection, blood glucose levels were measured to confirm hyperglycemia. Mice were fasted for 6 hours prior to glucose measurement and then anesthetized with 2.5% isoflurane. Tail snips were taken, and one drop of blood was placed on test strips to obtain readings. Tails were then stemmed of bleeding using a silver nitrate applicator (Avoca reference number #7482) before returning mice to their cages. Any mice not registering as hyperglycemic were removed from the study. Remaining mice were then switched to a 45% high fat diet (HFD) to accelerate atherosclerotic plaque formation. After 1 week on HFD, mice were randomly assigned to receive intravenous CMP (n=5) or PBS (1×PBS, n=4) once weekly for 12 weeks. Upon conclusion of the study, mice were anesthetized via intraperitoneal pentobarbital injection followed by transcardial perfusion of 1×PBS and 4% paraformaldehyde (PFA). One day prior to sacrifice, mice were injected via tail vein injection with Sulfo-NHS-Biotin in sterile 1×PBS (Thermo-Fisher; Catalog #21335).
Intravenous Administration of CMPs. The CMP used in the present Example was a 21-aa single-strand peptide consisting of a 7-repeat sequence of a tripeptide of 4-fluoroproline (Flp), hydroxyproline (Hyp), and glycine (Gly), and abbreviated as (cis-Flp-Hyp-Gly)7 (SEQ ID NO:6). This CMP was manufactured using standard solid-phase peptide synthesis chemistry in limited quantity by Bachem, AG (Germany). CMP was dissolved in sterile 1×PBS at a concentration of […] and sterilized using a 0.22 µm filter (Millipore Sigma, Burlington, MA, USA). Mice were weighed and restrained in an apparatus designed for tail vein injection. Tails were heated to dilate the veins prior to weekly injection, and […] of CMP in sterile 1×PBS (vehicle) was injected to accommodate a final concentration in each animal of 0.1 mg/Kg. An additional batch of this CMP was produced with attachment of the TideFluor™ 2 moiety (AAT Bioquest, Sunnyvale, CA, United States) to the peptide as a fluorescent reporter. This labeled CMP was injected intravenously at 100 μM concentration (100 μL) to identify binding in WT vs. ApoE^−/−+STZ mice. CMP was injected 48 hours prior to sacrifice and again immediately before transcardial perfusion of 4% PFA. One day prior to euthanasia, tail veins were injected with Sulfo-NHS biotin to track vascular leakage. Sulfo-NHS Biotin (Thermo-Fisher; Catalog #21335) was dissolved in sterile 1×PBS (20 mg/mL) and sterilized through a […] filter. Mice were then restrained in tail vein apparatus and injected intravenously with 100 μL Sulfo-NHS biotin. […]

## Pro-Flp-Gly-Pro-Flp-Gly-Pro-Flp-Gly-Pro-Flp-Gly-Pro-Flp-Gly-Pro-Flp-Gly-Pro-Flp-Gly [CMP 09C]
[1]; 48 hours, MMP1-digested collagen + CMP 100 μM, normalized to intact collagen, p<0.036
  longest neurite outgrowth, greater than intact collagen: 21%
[1]; explants on damaged (MMP-1-digested) collagen treated with CMP 100 μM, 24 and 48 hours
  neurite outgrowth of DRG explants (phase contrast micrographs): improved outgrowth

## Flp-Hyp-Gly-Flp-Hyp-Gly-Flp-Hyp-Gly-Flp-Hyp-Gly-Flp-Hyp-Gly-Flp-Hyp-Gly-Flp-Hyp-Gly [CMP 13A]
Optic nerve; 50-100 μm from injury site
  greater abundance of CTB-containing axon segments vs vehicle: 29%
Optic nerve; 200-300 μm from injury site
  greater abundance of CTB-containing axon segments vs vehicle: 39%
Optic nerve; 400 μm and further from injury site
  greater abundance of CTB-containing axon segments vs vehicle: 96%
Optic nerve; fluorescently tagged CMP 13A intravitreal 3 days after crush, two weeks after crush, vs vehicle (DMSO)
  number of CTB+ axon segments at discrete distances distal from the crush site: more axon segments than nerves from vehicle eyes at each location examined
Optic nerve; two weeks after crush
  distance of CTB+ segments distal from the injury, some samples: ≤ 1 mm
  mean for the longest 25 segments: 228.1±12.9 μm
  mean length of intact axon segments: 122.6±5.5 μm
Optic nerve; two weeks after crush, p<0.001
  mean for the longest 25 segments, greater than vehicle nerves: ~80%
  mean length of intact axon segments, greater than vehicle cohort: 51%
[2]; 3 months post-treatment, Sulfo-NHS biotin intravenous one day before euthanasia
  vascular leakage of biotin: not observed
[2]; CA1 (p<0.0001) and DG (p=0.0004)
  distance from individual astrocytes to the nearest blood vessel: closer to blood vessels than in PBS-treated mice
[2]; CA1 (p=0.07) and DG (p=0.06)
  GFAP density vs PBS: not significantly different
[2]; CA1, DG and cortex
  biotin intensity (secondary measure of vessel density) vs PBS: increased biotin labeling
[2]; CA1, cortex and DG (p=0.02, p<0.0001, p=0.01), 0.1 mg/Kg intravenous once weekly for 12 weeks
  CD31 intensity vs PBS: increased
[2]; CA1, p=0.01
  increase of collagen IV intensity relative to PBS-treated controls: 170%
[2]; CA1, p=0.02
  number of astrocyte soma vs PBS: decreased
[2]; CA1 and cortex (p=0.001 and p<0.0001), (cis-Flp-Hyp-Gly)7 0.1 mg/Kg intravenous once weekly for 12 weeks
  area of CD31-positive vessels vs PBS: significant increase
[2]; DG only (p=0.04)
  CD31 intensity as a ratio of biotin intensity vs PBS: significantly increased
[2]; DG, 0.1 mg/Kg intravenous once weekly for 12 weeks
  vessel (CD31) area vs control: no significant difference
[2]; DG, p=0.04
  increase of collagen IV intensity relative to PBS-treated controls: 52%
[2]; DG, p=0.31
  number of astrocyte soma vs PBS: not significantly different
[2]; all brain regions, vs shorter, more fragmented vessels in PBS-treated mice
  vascular structure by biotin labeling: longer, more complex vessels with increased branching
[2]; cortex, p=0.01
  increase of collagen IV intensity relative to PBS-treated controls: 175%
